Literature values in patent US20200315935A1, “TOPICALLY APPLICABLE CHEMICAL PEEL COMPOSITION” (L'OREAL, priority 2015, published 2020).
Like-named read-outs stand apart in the source and are kept apart here.

Key:
[1] = acute oral toxicity, mutagenicity, skin irritation, skin sensitization, and phototoxicity

| SMILES | pKA | adverse effects in basic toxicological tests ([1]; listed as Phenylethyl resorcinol) | adverse effects in basic toxicological tests ([1]; listed as phenylethyl resorcinol) |
| --- | --- | --- | --- |
| CC(c1ccccc1)c1ccc(O)cc1O (stereo not shown) [Phenylethyl Resorcinol] | 9.77-10.77 | not shown adverse effects | not been shown to have adverse effects |
| Oc1cccc(O)c1 [Resorcinol, reference compound] | 9.32-9.81 |  |  |
